The values that follow are results of earlier work, collected in patent publication US8454566B2, “Methods and compositions for the inhibition of biofilms on medical devices” (Medtronic MiniMed, Inc., priority 2003, dated 2013).

The series has as its target avidin (Gallus gallus, UniProt P02701). The note with it: avidin tetramer binds 4 biotin molecules in solution, noncovalent interaction.

Sequence of avidin (P02701 25-152): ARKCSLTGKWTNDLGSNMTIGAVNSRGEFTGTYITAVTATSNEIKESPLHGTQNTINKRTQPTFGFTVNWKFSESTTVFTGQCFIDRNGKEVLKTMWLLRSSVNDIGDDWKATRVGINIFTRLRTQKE

`O=C(O)CCCC[C@@H]1SC[C@@H]2NC(=O)N[C@@H]21` [biotin]: the binding constant entry is given as “about 10^15 M^−1”.
